# Numbered stars: 1 amine (or outer) side, 2 acyl side, 3 side chain; on linkers, the order of the positions; unused ones are H or OH. Bridge positions count the residues as written; N and C are the ends. Square brackets hold non-standard residues; d marks the D form. Peptide text beside a SMILES is read from it. * marks the point of attachment. C20 diacid = O=C(O)CCCCCCCCCCCCCCCCCCC(=O)*; γGlu = O=C(O)[C@H](CCC(=O)[*:2])N[*:1]; NMeI = CC[C@H](C)[C@H](NC)C(=O)O; Sar = CNCC(=O)O
# Experiments:
# [1] = Solubility assessment (turbidity absorbance at 325 nm); assay type: physicochemical; settings: stock 2 mg/ml diluted 1:1, ambient temperature (typically 25°C), n=1; for Solubility, Acetate buffer pH 4: 100 mM acetate buffer pH 4.0; for Solubility, Acetate buffer pH 5: 100 mM acetate buffer pH 5.0; for Solubility, Histidine buffer pH 6: 100 mM histidine buffer pH 6.0; for Solubility, Histidine buffer pH 7: 100 mM histidine buffer pH 7.0; for Solubility, Phosphate buffer pH 6: 100 mM phosphate buffer pH 6.0; for Solubility, Phosphate buffer pH 7: 100 mM phosphate buffer pH 7.0; for Solubility, Phosphate buffer pH 7.5: 100 mM phosphate buffer pH7.5
# How it was run: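 Peptide stock (2 mg/ml) in water acidified to pH 2.5 with HCl was diluted 1:1 into 100 mM acetate (pH 4.0, 5.0), histidine (pH 6.0, 7.0) or phosphate (pH 6.0, 7.0, 7.5) buffer. A280 and A325 were read at about 25°C, n=1. A325 ≤ 0.02 meant solubility ≥ 1 mg/ml.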
# [2] = biological target: T1, human calcitonin receptor (hCTR2) (Homo sapiens, UniProt P30988); assay: hCTR2 assay: induction of cAMP (AlphaScreen cAMP Assay kit) in COS7 cells expressing hCTR2; assay type: cell-based; settings: cAMP induction in COS7 cells expressing hCTR2; average of a minimum of 3 determinations; read-out: hCTR2 EC50
# T1 construct: expressed in transfected cells
# T1 sequence (P30988 25-474): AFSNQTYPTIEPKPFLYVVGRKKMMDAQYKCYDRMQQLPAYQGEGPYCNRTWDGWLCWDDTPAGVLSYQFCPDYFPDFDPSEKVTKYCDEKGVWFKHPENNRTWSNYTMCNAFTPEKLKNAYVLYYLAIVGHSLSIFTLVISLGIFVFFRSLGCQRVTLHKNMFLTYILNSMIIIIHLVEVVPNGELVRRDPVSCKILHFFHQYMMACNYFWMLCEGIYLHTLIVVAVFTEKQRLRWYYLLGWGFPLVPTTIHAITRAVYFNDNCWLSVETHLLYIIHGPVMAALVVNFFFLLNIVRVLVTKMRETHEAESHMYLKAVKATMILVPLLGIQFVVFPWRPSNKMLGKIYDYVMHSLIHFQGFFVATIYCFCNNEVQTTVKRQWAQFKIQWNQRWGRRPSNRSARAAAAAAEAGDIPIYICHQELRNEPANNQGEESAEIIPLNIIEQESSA
# How it was run: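 Stable hCTR2 clone in RAMP-naive COS7 cells; peptides titrated in Tyrode buffer (pH 7.4) with 100 µM IBMX, 0.1% casein, 15 min at 37° C. cAMP read by AlphaScreen after lysis; EC50 and efficacy relative to pramlintide from 4PL fit.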
"Solubility, Acetate buffer pH 4 [1]","Solubility, Acetate buffer pH 5 [1]","Solubility, Histidine buffer pH 6 [1]","Solubility, Histidine buffer pH 7 [1]","Solubility, Phosphate buffer pH 6 [1]","Solubility, Phosphate buffer pH 7 [1]","Solubility, Phosphate buffer pH 7.5 [1]",EC50 [2] [nM],Compound
SS (SS indicates solubility ≥ 1mg/ml),SS (SS indicates solubility ≥ 1mg/ml),SS (SS indicates solubility ≥ 1mg/ml),SS (SS indicates solubility ≥ 1mg/ml),SS (SS indicates solubility ≥ 1mg/ml),SS (SS indicates solubility ≥ 1mg/ml),SS (SS indicates solubility ≥ 1mg/ml),0.076,"CC[C@H](C)[C@@H](C(=O)N[C@@H](CC(C)C)C(=O)N[C@@H](CO)C(=O)N[C@@H](CO)C(=O)N[C@H](C(=O)N[C@@H](CC(N)=O)C(=O)N[C@H](C(=O)NCC(=O)N[C@@H](CO)C(=O)N[C@@H](CC(N)=O)C(=O)N[C@H](C(=O)N1CCC[C@H]1C(N)=O)[C@@H](C)O)C(C)C)[C@@H](C)O)N(C)C(=O)[C@H](C)NC(=O)CN(C)C(=O)[C@H](Cc1ccccc1)NC(=O)[C@H](CO)NC(=O)[C@H](CO)NC(=O)[C@H](Cc1c[nH]cn1)NC(=O)[C@H](Cc1c[nH]cn1)NC(=O)[C@H](CC(C)C)NC(=O)[C@H](Cc1ccccc1)NC(=O)[C@H](CCC(=O)O)NC(=O)[C@H](C)NC(=O)[C@H](CC(C)C)NC(=O)[C@H](CCCNC(=N)N)NC(=O)[C@H](CCC(N)=O)NC(=O)[C@@H](NC(=O)[C@H](C)NC(=O)[C@@H]1CSSC[C@H](NC(=O)[C@H](CCCNC(=N)N)NC(=O)CC[C@H](NC(=O)CCCCCCCCCCCCCCCCCCC(=O)O)C(=O)O)C(=O)N[C@@H](CC(N)=O)C(=O)N[C@@H]([C@@H](C)O)C(=O)N[C@@H](C)C(=O)N[C@@H]([C@@H](C)O)C(=O)N1)[C@@H](C)O [Compound 52, [19CD]-isoGlu-RC()NTATC()ATQRLAEFLHHSSF-Gly(Me)-A-Ile(Me)-LSSTNVGSNTP-NH2] ({C20 diacid-γGlu}-RCNTATCATQRLAEFLHHSSF[Sar]A[NMeI]LSSTNVGSNTP-NH2; disulfide 2-7)"
SS (SS indicates solubility ≥ 1mg/ml),SS (SS indicates solubility ≥ 1mg/ml),SS (SS indicates solubility ≥ 1mg/ml),SS (SS indicates solubility ≥ 1mg/ml),SS (SS indicates solubility ≥ 1mg/ml),SS (SS indicates solubility ≥ 1mg/ml),SS (SS indicates solubility ≥ 1mg/ml),0.12,"CC[C@H](C)[C@@H](C(=O)N[C@@H](CC(C)C)C(=O)N[C@@H](CO)C(=O)N[C@@H](CO)C(=O)N[C@H](C(=O)N[C@@H](CC(N)=O)C(=O)N[C@H](C(=O)NCC(=O)N[C@@H](CO)C(=O)N[C@@H](CC(N)=O)C(=O)N[C@H](C(=O)N1CCC[C@H]1C(N)=O)[C@@H](C)O)C(C)C)[C@@H](C)O)N(C)C(=O)CN(C)C(=O)[C@H](Cc1ccccc1)NC(=O)[C@H](CO)NC(=O)[C@H](CO)NC(=O)[C@H](Cc1c[nH]cn1)NC(=O)[C@H](Cc1c[nH]cn1)NC(=O)[C@H](CC(C)C)NC(=O)[C@H](Cc1ccccc1)NC(=O)[C@H](CCC(=O)O)NC(=O)[C@H](C)NC(=O)[C@H](CC(C)C)NC(=O)[C@H](CCCNC(=N)N)NC(=O)[C@H](CCC(N)=O)NC(=O)[C@@H](NC(=O)[C@H](C)NC(=O)[C@@H]1CSSC[C@H](NC(=O)[C@H](CCCNC(=N)N)NC(=O)CC[C@H](NC(=O)CCCCCCCCCCCCCCCCCCC(=O)O)C(=O)O)C(=O)N[C@@H](CC(N)=O)C(=O)N[C@@H]([C@@H](C)O)C(=O)N[C@@H](C)C(=O)N[C@@H]([C@@H](C)O)C(=O)N1)[C@@H](C)O [Compound 53, [19CD]-isoGlu-RC()NTATC()ATQRLAEFLHHSSF-Gly(Me)-Ile(Me)-LSSTNVGSNTP-NH2] ({C20 diacid-γGlu}-RCNTATCATQRLAEFLHHSSF[Sar][NMeI]LSSTNVGSNTP-NH2; disulfide 2-7)"
